The numbers were not newly measured in patent US10653634B1, “Polymeric nanoparticulate formulation to enhance the oral bioavailability of dapoxetine” (King Abdulaziz University, priority 2019, dated 2020), which cites them from elsewhere.

For orientation: pKa means the negative logarithm of the acid dissociation constant. As a reminder, the aqueous solubility is the dissolved amount per volume that the medium holds.

Assay in data set [1]: not given
The source holds these as a separate data set.

Values after ≈ are worked out from the molar mass of the structure shown.

On to `CN(C)[C@@H](CCOc1cccc2ccccc12)c1ccccc1` [DPX, (1S)—N,N-dimethyl-3-naphthalen-1-yloxy-1-phenylpropan-1-amine], for which the pKa was 8.6. Moreover, the aqueous solubility (protonated DPX) is reported as 68 mg/mL (≈ 223 mM). For the same compound, in data set [1], the “bioavailability after oral administration (mean)” value is given as 42%, the “bioavailability after oral administration (variability)” value is reported as 15-76% and the “time to peak plasma concentration after oral administration” value was 60 to 80 min.
